We go through one molecule from patent publication US10568931B2, “Pharmaceutical composition comprising ginseng extracts for prevention and treatment of ophthalmological diseases” (GINTONIN KU BIOTECH Co., Ltd., priority 2017, dated 2020).

For assay [1], the system named is human corneal epithelial-T (HCE-T) cells. In words: Scratch wound healing / cell migration in HCE-T cells. The class given is cell-based. The conditions noted are these: Ki16425 treated before gintonin. Here is the method:
HCE-T cells (RCB-2280) were purchased from a Riken cell bank. The HCE-T cells were cultured in a medium in which 10% FCS was contained in a DMEM-Ham F12 (1:1) medium (Araki-sasaki et al., Investigative Ophthalmology and Visual Science 36, 614-621, 1995; Arakisasaki et al., J cellular Physiol. 182, 189-195, 2000).
HCE-T (2.5×10^5/well) was planted in a 24-well plate and cultured for 24 hrs and then cultured for 6 hrs in a 0.2% FBS-containing DMEM medium again. The wound was made by drawing a line through the center of each well where cells grew by using a […] pipette tip and then the floating cells were washed twice with a 1% FBS-containing DMEM medium to be removed.
The cells were treated with 0.03 to 1 μg/ml of gintonin and cultured and compared with cells without treating gintonin by observing and photographing (100×) cell shapes before and after gintonin treatment of each well with an inverted fluorescence microscope (AxioVert200; Carl Zeiss).
For the analysis of the degree of cell growth in a part wounded with the pipette tip, an area of the wound part where cells were not recovered was measured using AxioVision.

In assay [2] the test system is intracytoplasmic calcium in HCE-T cells. In words: Fura 2 fluorescence measurement of [Ca^2+]i in HCE-T cell suspension. The conditions noted are these: LPA1/3 receptor antagonist. The class given is cell-based, human. The method, then: Particularly, according to a method such as Jrgensen and the like, HCE-T cells (1 to 2×10^6 cell/ml) were mixed in […] Fura 2-AM while being shaken for 30 minutes at a 37° C. incubator by using a Ca^2+-containing buffer (pH 7.4) consisting of NaCl 120 mM, KCl 5 mM, MgCl2 1 mM, CaCl2 1.5 mM, glucose 10 mM, and HEPES 25 mM and a Ca^2+-free buffer (pH 7.4) consisting of NaCl 120 mM, KCl 5 mM, MgCl2 1 mM, EGTA 0.2 mM, glucose 10 mM, and HEPES 25 mM, and an excessive amount of fura-2 was removed by washing the cells with the Ca^2+ buffer or the Ca^2+-free buffer three times.
[Ca^2+]i was estimated in the Fura 2-loaded cells by using a RF-5300PC intracellular ion measurement system (Shimadzu Corporation, Japan). […] Excitation wavelengths were alternated between 340 and […] under a computer control and emission was detected at 510. […]
A measured ratio value of 340:380 was converted to a value of [Ca^2+]i by using Equation of Hounsell and the like (Hounsell, E. F., Davies, M. J., and Smith, K. D. (1997) Protein protocol handbook, Humanna press, Totawa, 803-804). […] Further, Sf380 and Sb380 are fluorescence intensity at 380 nm when adding digitonin and EGTA and the ratios are maximum and minimum values when these values are indicated (Grynkiewicz, G., M. Poenie, and R. Y. Tsien. (1985) J Biol Chem 260: 3440-3450).

Take `Cc1noc(-c2ccc(CSCCC(=O)O)cc2)c1NC(=O)OC(C)c1ccccc1Cl` (centres unmarked) [Ki16425]: the “Effect of antagonist pretreatment on gintonin-promoted cell migration” value in assay [1] is on record as “the action of the gintonin is inhibited”. In addition, the “Effect of antagonist on increase in intracytoplasmic calcium by gintonin” value in assay [2] was “blocked”.
